This note sets out measurements from patent US7589193B2, “C-aryl glucoside SGLT2 inhibitors and method” (Bristol-Myers Squibb Company, priority 2004, dated 2009).

Data set [1] is described as follows: Stability in presence of commonly used solid excipients under accelerated aging conditions (Study B). The data set is classed as physicochemical. The following applies: for Stability in a prototypical formulation: drug-excipient blends, accelerated aging conditions, 1 and 3 weeks, HPLC analysis. An excerpt: II. Protocol for Study B: Stability Determination of Oxidatively Labile Therapeutic Agent in Presence of Commonly Used Solid Excipients, Under Accelerated Aging Conditions
The following procedure was utilized to access the chemical stability of the compound 3 in the presence of commonly used excipients and typical antioxidants.
The drug substance was triturated in a mortar pestle with the respective antioxidant, and then mixed in the dry state with other excipients listed in the following table. Sodium metabisulfite and butylated hydroxyl anisole (BHA) were used as antioxidants in this study. BHA was used at two levels, 0.01% w/w and 0.5% w/w, and sodium metabisulfite was used at 0.01% w/w. For samples stored at 40° C./[…] and HIL/uv, oxygen gas was purged into the vials and they were tightly capped. The drug-excipient blends (A-D) were placed under the different accelerated aging conditions listed within the second table for 1 and 3 weeks prior to HPLC analysis.

Another data set deals with STZ diabetic rats. Put plainly: Determination of blood glucose effect in streptozotocin-treated diabetic rats (Study A). The class given is in vivo, rat (male Sprague Dawley). The following applies: oral 0.1 mg/kg. As to the method:
I. Protocol for Study A: Determination of Blood Glucose Effect in Streptozotocin-Treated Diabetic Rats
The following analysis was utilized to reasonably predict the impact on plasma glucose for the compounds analyzed in the matrix above.
Male Sprague Dawley rats (Charles River) weighing 250-275 g were made diabetic by a single intraperitoneal injection of streptozotocin (Sigma) at 65 mg/kg, prepared in fresh cold (4° C.) 0.01 M citrate buffer. Four days later, animals were bled in the fed state. Whole blood was collected via the tail tip and analyzed for glucose by the glucose oxidation method with a Glucometer Elite (Bayer). Mean blood glucose levels ranged from 450-550 mg/dl.
On the day of the experiment, the compound was dissolved in the vehicle comprised of 5% m-Pyrol, 20% PEG 400 and 20 mM Sodium Diphosphate. Rats were weighed, randomized into 4 groups with 6 rats in each group, and dosed orally with the vehicle or 0.1 mg/kg of the compound. The total volume for oral gavage was 1 ml/kg body weight. After dosing, the food was removed from the cages and the rats had access to water ad lib during the experiment. Blood samples were obtained from the tail tip at 0, 30, 60, 120, 180, 240 and 300 minutes following drug administration. Blood glucose was analyzed by the glucose oxidation method with a Glucometer Elite (Bayer).
A. Statistical Data Analysis
The calculation of mean blood glucose values and percent changes vs. vehicle at each time point were performed using Microsoft Excel. Statistical analyses (T tests, or ANOVA followed by Fisher's test) comparing drug-treated groups vs. vehicle controls) were performed using Microsoft Excel or the statistical program StatView. A p value of less that 0.05 was considered to be statistically significant.

The test system of data set [2] is Chinese hamster ovary (CHO) cells. In words: Cytogenetics study in Chinese hamster ovary cells, in vitro clastogenicity / chromosome aberration (Study C). The following applies: 3 hr with/without S9, 20 hr without S9.
Source text: (§1) The following protocol was utilized to predict the in vitro clastogenicity activity of compounds of therapeutic interest.
(§2) Clastogenicity was predicted by determining the potential of compounds of interest to induce structural chromosome damage in Chinese hamster ovary (CHO) cells.
(§3) The vehicle control is dimethyl sulfoxide (DMSO). The positive controls were Mitomycin C for the 3-hr and 20-hr exposure without S9 activation and cyclophosphamide for the 3-hr exposure with S9 rat-liver enzymes. Both Mitomycin C and cyclophosphamide were diluted with sterile water.
(§4) Two stock solutions in DMSO of the compound of interest were prepared—one being a high concentration, the other low. Aliquots of the vehicle control, low and high dosing solutions were collected following treatment of the CHO cells and subsequently analyzed to determine the concentration of the compound of interest. […] Once the upper limit of solubility of the compound of interest was determined in DMSO, that DMSO solution is added to culture medium to determine effects on pH or osmmolality. […]
(§5) The DMSO stock solution of the compound of interest was 100× concentration of the highest test-article concentration to be used in the full assay. […] The cytotoxicity dose response observed in the range finding study determined the serial dilution factor for the five lower doses. […]
The test system is the same in data set [3].
Source text: as §1, §2, §3, §4, §5

Where two headings read alike, the source gives them in different places.

For the compound `CCc1ccc(Cc2cc([C@@H]3O[C@H](CO)[C@@H](O)[C@H](O)[C@H]3O)ccc2Cl)cc1` [Compound 1], in data set [1], the “Stability in a prototypical formulation” value is on record as “Yes” and the “Chemical stability in the presence of excipients commonly used in solid dosage forms” value (“Chemical stability in the presence” below) is given as “chemically stable”. In addition, in the data set with STZ diabetic rats, the “% Decrease of plasma glucose in STZ diabetic rats at 5 hr after an oral dose of 0.1 mg/kg vs. vehicle treated controls” value (from here on “% Decrease of plasma glucose”) stood at 62%.

As for `CSc1ccc(Cc2cc([C@@H]3O[C@H](CO)[C@@H](O)[C@H](O)[C@H]3O)ccc2C)cc1` [Compound 3], the “Stability in a prototypical formulation” value in data set [1] is on record as “No”. The “% Decrease of plasma glucose” value with STZ diabetic rats was determined as 59%.

In the case of `CCOc1ccc(Cc2cc([C@@H]3O[C@H](CO)[C@@H](O)[C@H](O)[C@H]3O)ccc2Cl)cc1` [Compound 4], in data set [1], the “Stability in a prototypical formulation” value is reported as “Yes” and the “Chemical stability in the presence” value was “chemically stable”. For the same compound, in data set [2], the “In vitro clastogenic activity” value is “Yes”. For the same compound, the “% Decrease of plasma glucose” value in the data set with STZ diabetic rats amounted to 60%.

On to `CCc1ccc(Cc2cccc([C@@H]3O[C@H](CO)[C@@H](O)[C@H](O)[C@H]3O)c2)cc1` [Compound 5], for which the “In vitro clastogenic activity” value in data set [3] is reported as “Yes”. In addition, in data set [1], the “Stability in a prototypical formulation” value is “Yes” and the “Chemical stability in the presence” value is on record as “chemically stable”. The “% Decrease of plasma glucose” value in the data set with STZ diabetic rats is on record as 34%.
